Measured values from ChEMBL document CHEMBL1201862, “PubChem BioAssay data set” (2004).
Activity calls are given as the source filed them.

Assays:
cells [1] = format: functional, cell-based
[2] = target: T1, Carboxy-terminal domain RNA polymerase II polypeptide A small phosphatase 1 (Homo sapiens, UniProt Q9GZU7); assay: CTDSP1 inhibitors, concentration-response, biochemical, absorbance readout, ultra-high-throughput screen actives (AID 540297); format: functional
T1 sequence (Q9GZU7 whole entry): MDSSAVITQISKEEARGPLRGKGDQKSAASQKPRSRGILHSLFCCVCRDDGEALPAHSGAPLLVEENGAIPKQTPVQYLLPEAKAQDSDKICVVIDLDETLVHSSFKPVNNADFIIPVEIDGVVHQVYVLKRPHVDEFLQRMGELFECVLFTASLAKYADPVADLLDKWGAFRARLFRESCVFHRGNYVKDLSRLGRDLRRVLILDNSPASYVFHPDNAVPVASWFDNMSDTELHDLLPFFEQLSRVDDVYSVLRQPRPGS

cells [3] = format: functional, cell-based; remark: listed apart in the source
[4] = target: T2, Beta-adrenergic receptor kinase 1 (Homo sapiens, UniProt P25098); assay: aptamer displacement from bead-bound GRK2 – biochemical, cherry pick 1, bead flow cytometry, dose response (AID 504500)
T2 sequence (P25098 whole entry): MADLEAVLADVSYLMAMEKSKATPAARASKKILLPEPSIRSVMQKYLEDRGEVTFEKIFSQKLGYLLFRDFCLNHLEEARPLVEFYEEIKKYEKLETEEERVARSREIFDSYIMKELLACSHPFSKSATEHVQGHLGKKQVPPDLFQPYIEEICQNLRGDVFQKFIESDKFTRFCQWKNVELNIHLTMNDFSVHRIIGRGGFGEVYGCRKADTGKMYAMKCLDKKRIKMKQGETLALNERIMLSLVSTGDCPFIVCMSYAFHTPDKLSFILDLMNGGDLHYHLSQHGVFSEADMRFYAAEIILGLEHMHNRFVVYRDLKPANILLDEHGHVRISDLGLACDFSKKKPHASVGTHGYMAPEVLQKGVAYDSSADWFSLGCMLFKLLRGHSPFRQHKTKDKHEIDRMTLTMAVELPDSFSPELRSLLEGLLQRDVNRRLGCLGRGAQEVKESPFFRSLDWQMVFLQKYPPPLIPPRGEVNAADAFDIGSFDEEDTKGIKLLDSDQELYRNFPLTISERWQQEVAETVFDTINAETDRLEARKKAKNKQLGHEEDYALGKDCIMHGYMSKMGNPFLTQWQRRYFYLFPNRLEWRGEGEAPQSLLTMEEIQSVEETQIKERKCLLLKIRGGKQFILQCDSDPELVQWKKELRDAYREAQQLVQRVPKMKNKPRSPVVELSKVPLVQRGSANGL

[5] = target: T2, Beta-adrenergic receptor kinase 1; assay: blockers of aptamer binding to GRK2 – biochemical, flow cytometry beads, FAM-aptamer, powder set 1, dose response (AID 588720)
Vero [6] = assay: cells; format: functional; conditions: Chlorocebus sabaeus
Vero [7] = assay: cells; format: functional, cell-based; conditions: Chlorocebus sabaeus
Mu-type opioid receptor = Mu-type opioid receptor (Homo sapiens, UniProt P35372); assay: (§1) Counterscreen for agonists of heterodimerization of the mu 1 (OPRM1) and delta 1 (OPRD1) opioid receptors: Luminescence-based cell-based high throughput dose response assay to identify agonists of OPRM1 homodimerization.; format: functional
Mu-type opioid receptor, sequence (P35372 whole entry): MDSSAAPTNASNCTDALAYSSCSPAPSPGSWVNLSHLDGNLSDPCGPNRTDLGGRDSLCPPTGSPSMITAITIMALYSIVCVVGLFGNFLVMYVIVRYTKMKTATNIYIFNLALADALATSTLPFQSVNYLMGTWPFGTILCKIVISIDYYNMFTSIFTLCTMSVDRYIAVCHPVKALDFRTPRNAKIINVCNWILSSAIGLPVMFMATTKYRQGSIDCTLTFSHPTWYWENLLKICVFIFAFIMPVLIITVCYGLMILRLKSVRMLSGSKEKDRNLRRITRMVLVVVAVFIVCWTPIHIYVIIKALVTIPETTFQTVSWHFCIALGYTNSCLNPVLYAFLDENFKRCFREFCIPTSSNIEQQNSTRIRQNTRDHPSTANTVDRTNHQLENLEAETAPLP

[8] = target: Delta-type opioid receptor (Homo sapiens, UniProt P41143); assay: as §1, with “of OPRD1” for “of OPRM1”, “homodimerization. [Related pubchem assays (depositor defined):AID504326, AID504355, AID504692, AID504904, AID504905]” for “homodimerization.”; format: functional
Delta-type opioid receptor, sequence (P41143 whole entry): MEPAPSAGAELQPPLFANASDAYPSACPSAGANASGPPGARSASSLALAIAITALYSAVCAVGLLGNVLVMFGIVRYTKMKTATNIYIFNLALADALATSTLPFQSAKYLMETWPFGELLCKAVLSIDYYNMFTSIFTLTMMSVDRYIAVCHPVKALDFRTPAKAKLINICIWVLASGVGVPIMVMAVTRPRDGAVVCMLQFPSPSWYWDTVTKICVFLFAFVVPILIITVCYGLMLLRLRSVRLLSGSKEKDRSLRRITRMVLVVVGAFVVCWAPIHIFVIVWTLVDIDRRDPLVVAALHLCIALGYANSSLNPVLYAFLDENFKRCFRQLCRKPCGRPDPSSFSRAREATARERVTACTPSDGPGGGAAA

[9] = target: 5-hydroxytryptamine receptor 5A (Homo sapiens, UniProt P47898); assay: Counterscreen for agonists of OPRM1-OPRD1 heterodimerization: luminescence-based cell-based high throughput dose response assay to identify agonists of 5-hydroxytryptamine (serotonin) 5A receptor (HTR5A). [Related pubchem assays (depositor defined):AID504326, AID504355, AID504692, AID504904, AID504905]; format: functional
5-hydroxytryptamine receptor 5A, sequence (P47898 whole entry): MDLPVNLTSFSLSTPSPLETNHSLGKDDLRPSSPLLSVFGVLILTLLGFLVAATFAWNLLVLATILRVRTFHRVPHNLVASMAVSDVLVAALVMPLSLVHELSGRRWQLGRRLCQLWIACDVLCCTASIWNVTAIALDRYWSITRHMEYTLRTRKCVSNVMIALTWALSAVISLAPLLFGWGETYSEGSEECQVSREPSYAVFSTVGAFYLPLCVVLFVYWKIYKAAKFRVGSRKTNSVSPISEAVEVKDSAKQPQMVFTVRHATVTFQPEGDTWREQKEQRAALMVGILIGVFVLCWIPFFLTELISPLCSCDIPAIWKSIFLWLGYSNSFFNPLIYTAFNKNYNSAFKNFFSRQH

[10] = target: T3, Short transient receptor potential channel 4 (Mus musculus, UniProt Q9QUQ5); assay: calcium entry via TRPC4 opening agents – cell-based, HEK293 TRPC4/mu-opioid, Fluo-4 calcium, dose response (AID 434937); format: functional
T3 sequence (Q9QUQ5 whole entry): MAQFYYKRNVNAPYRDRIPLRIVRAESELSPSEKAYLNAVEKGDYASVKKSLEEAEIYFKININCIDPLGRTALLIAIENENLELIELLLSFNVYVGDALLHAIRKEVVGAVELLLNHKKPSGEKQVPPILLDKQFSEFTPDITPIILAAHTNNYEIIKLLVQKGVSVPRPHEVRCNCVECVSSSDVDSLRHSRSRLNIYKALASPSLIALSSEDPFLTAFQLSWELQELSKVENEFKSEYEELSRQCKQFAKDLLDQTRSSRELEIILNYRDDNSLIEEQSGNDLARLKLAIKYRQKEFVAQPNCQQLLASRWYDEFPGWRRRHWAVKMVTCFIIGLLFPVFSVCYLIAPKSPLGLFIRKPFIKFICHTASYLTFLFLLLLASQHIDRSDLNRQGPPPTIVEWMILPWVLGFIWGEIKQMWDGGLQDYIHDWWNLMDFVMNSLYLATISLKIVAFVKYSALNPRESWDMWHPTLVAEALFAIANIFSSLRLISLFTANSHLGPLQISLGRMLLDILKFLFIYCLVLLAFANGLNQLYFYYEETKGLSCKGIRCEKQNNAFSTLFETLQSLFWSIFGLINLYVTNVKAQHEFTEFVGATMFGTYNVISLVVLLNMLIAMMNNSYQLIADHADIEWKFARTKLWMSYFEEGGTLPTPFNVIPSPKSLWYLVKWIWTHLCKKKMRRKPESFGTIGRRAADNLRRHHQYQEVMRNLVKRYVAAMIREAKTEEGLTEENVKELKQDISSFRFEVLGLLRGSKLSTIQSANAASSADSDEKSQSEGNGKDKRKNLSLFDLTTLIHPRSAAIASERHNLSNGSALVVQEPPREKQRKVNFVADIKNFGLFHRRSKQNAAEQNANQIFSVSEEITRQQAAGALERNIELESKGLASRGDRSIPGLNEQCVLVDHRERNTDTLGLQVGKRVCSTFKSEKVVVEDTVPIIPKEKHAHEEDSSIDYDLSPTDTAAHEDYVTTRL

With O=C(CSc1nc2ccccc2c(=O)n1-c1ccccc1)NC(=O)CN1CCCC1=O the EC50 (cells [1]) was > 350 µM (not active), the IC50 [2] was 8.75 µM (active) and the EC50 (cells [3]) was > 350 µM (not active). The EC50 [4] was 9.42 µM (active) and the EC50 [5] was 2.96 µM (active).

With COc1ccc(S(=O)(=O)N2CCOC23CCN(C(=O)c2ccc(Cl)cc2Cl)CC3)cc1 the CC50 (Vero [6]) was > 25 µM (active) and the IC50 (Vero [7]) was > 25 µM (active).

In the case of COc1ccc(C(CNC(=O)CCc2ccsc2)N(C)C)cc1 (stereo unspecified), the EC50 (Mu-type opioid receptor) is reported as 1.42 µM (active), the EC50 [8] is reported as 25.6 µM (inactive) and the EC50 [9] is reported as > 92.4 µM (inactive). For the same compound, the EC50 [10] was 0.0147 µM (active).
